Experiments:
recombinant USP1 protein = biological target: T1, recombinant USP1 protein (Homo sapiens, UniProt O94782, DEL125-138/DEL229-408/DEL608-737); assay: Binding affinity to recombinant USP1 protein by differential scanning fluorimetry; conditions: compound 100 µM; 0.03 mg/mL USP1 (Δ1-66, Δ125-138, Δ229-408, Δ608-737); Tm with compound minus Tm with DMSO; read-out: ΔTm (°C)
T1 sequence (O94782 with tags, fused parts or gaps DEL125-138/DEL229-408/DEL608-737): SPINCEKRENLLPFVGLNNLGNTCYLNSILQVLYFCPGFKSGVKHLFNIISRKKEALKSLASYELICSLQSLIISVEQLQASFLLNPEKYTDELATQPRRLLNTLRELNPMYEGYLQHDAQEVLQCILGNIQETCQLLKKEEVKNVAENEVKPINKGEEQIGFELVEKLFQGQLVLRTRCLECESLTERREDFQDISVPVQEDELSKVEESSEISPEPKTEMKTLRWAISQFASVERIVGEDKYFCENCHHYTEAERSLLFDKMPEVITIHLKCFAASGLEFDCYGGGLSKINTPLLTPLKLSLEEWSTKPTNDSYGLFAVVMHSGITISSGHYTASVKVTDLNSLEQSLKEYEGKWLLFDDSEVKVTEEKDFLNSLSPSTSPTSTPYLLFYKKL
How it was run: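 USP1 (Δ1-66, Δ125-138, Δ229-408, Δ608-737) at 0.03 mg/mL with dye in 50 mM Tris-HCl pH 8.0, 150 mM NaCl, 2% glycerol, 1 mM DTT; compounds at 100 µM final. Tm read on real-time PCR instrument; ΔTm = Tm with compound minus Tm with DMSO.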

UWB1.289 cells = assay: Cell proliferation inhibitory activity in BRCA1/2-mutant or HRD-positive cells (Cell Titer-Glo); format: cell-based; conditions: UWB1289; UWB1.289 cells, 144 hours after compound treatment, Cell Titer-Glo, 1.5 nM to 10 µM; read-out: GI50 UWB1.289 BRCA1 mut
How it was run: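 UWB1.289 cells (1,000/well) in 50% MEBM/50% RPMI1640 exposed to […], final 1.5 nM to 10 µM, for 144 h at 37 °C. Viable cells measured by CellTiter-Glo luminescence; GI50 calculated.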

| ΔTm at 100 µM (recombinant USP1 protein) | SMILES | GI50 (UWB1.289 cells) |
| --- | --- | --- |
| > 5 °C | COc1ncnc(C2CC2)c1-c1ncc2cc(C(=O)NC3(C)CC3)n(Cc3ccc(-c4nc(C(F)(F)F)cn4C(C)C)cc3)c2n1 [Example 79, 2-(4-cyclopropyl-6-methoxypyrimidin-5-yl)-7-(4-(1-isopropyl-4-(trifluoromethyl)-1H-imidazol-2-yl)benzyl)-N-(1-methylcyclopropyl)-7H-pyrrolo[2,3-d]pyrimidine-6-carboxamide] | 0.1 to 0.5 µM |
| > 5 °C | COc1ncnc(C2CC2)c1-c1ncc2cc(C(=O)N[C@@H]3CCN(C(C)C)C[C@@H]3F)n(Cc3ccc(-c4nc(C(F)(F)F)cn4C)cc3)c2n1 [Example 221, 2-(4-cyclopropyl-6-methoxypyrimidin-5-yl)-N-((3S,4R)-3-fluoro-1-isopropylpiperidin-4-yl)-7-(4-(1-methyl-4-(trifluoromethyl)-1H-imidazol-2-yl)benzyl)-7H-pyrrolo[2,3-d]pyrimidine-6-carboxamide] | < 0.1 µM |
| > 5 °C | COc1ncnc(C2CC2)c1-c1ncc2cc(C(=O)N[C@H]3C[C@H]3F)n(Cc3ccc(-c4nc(C(F)(F)F)cn4C(C)C)cc3)c2n1 [Example 129, 2-(4-cyclopropyl-6-methoxypyrimidin-5-yl)-N-((1S,2R)-2-fluorocyclopropyl)-7-(4-(1-isopropyl-4-(trifluoromethyl)-1H-imidazol-2-yl)benzyl)-7H-pyrrolo[2,3-d]pyrimidine-6-carboxamide] | < 0.1 µM |
| > 5 °C | COc1ncnc(C2CC2)c1-c1ncc2cc(C(=O)N[C@H]3CN(C(C)C)C[C@H]3F)n(Cc3ccc(-c4nc(C(F)(F)F)cn4C)cc3)c2n1 [Example 211, 2-(4-cyclopropyl-6-methoxypyrimidin-5-yl)-N-((3S,4R)-4-fluoro-1-isopropylpyrrolidin-3-yl)-7-(4-(1-methyl-4-(trifluoromethyl)-1H-imidazol-2-yl)benzyl)-7H-pyrrolo[2,3-d]pyrimidine-6-carboxamide] | < 0.1 µM |
| > 5 °C | COc1ncnc(C2CC2)c1-c1ncc2cc(C(=O)N[C@H]3CCN(C)C3)n(Cc3ccc(-c4nc(C(F)(F)F)cn4C)cc3)c2n1 [Example 173, (S)-2-(4-cyclopropyl-6-methoxypyrimidin-5-yl)-7-(4-(1-methyl-4-(trifluoromethyl)-1H-imidazol-2-yl)benzyl)-N-(1-methylpyrrolidin-3-yl)-7H-pyrrolo[2,3-d]pyrimidine-6-carboxamide] | < 0.1 µM |
| > 5 °C | C#CCNC(=O)c1cc2cnc(-c3c(OC)ncnc3C3CC3)nc2n1Cc1ccc(-c2nc(C(F)(F)F)cn2C(C)C)cc1 [Example 60, 2-(4-cyclopropyl-6-methoxypyrimidin-5-yl)-7-(4-(1-isopropyl-4-(trifluoromethyl)-1H-imidazol-2-yl)benzyl)-N-(prop-2-yn-1-yl)-7H-pyrrolo[2,3-d]pyrimidine-6-carboxamide] | < 0.1 µM |
| > 5 °C | COc1ncnc(C2CC2)c1-c1ncc2cc(C(=O)NC3CCN(C(C)C)CC3)n(Cc3ccc(-c4nc(C(F)(F)F)cn4C(C)C)cc3)c2n1 [Example 137, 2-(4-cyclopropyl-6-methoxypyrimidin-5-yl)-7-(4-(1-isopropyl-4-(trifluoromethyl)-1H-imidazol-2-yl)benzyl)-N-(1-isopropylpiperidin-4-yl)-7H-pyrrolo[2,3-d]pyrimidine-6-carboxamide] | < 0.1 µM |
| > 5 °C | COc1ncnc(C2CC2)c1-c1ncc2cc(C(=O)NC3CCN(C)CC3(F)F)n(Cc3ccc(-c4nc(C(F)(F)F)cn4C)cc3)c2n1 (centres unmarked) [Example 185, 2-(4-cyclopropyl-6-methoxypyrimidin-5-yl)-N-(3,3-difluoro-1-methylpiperidin-4-yl)-7-(4-(1-methyl-4-(trifluoromethyl)-1H-imidazol-2-yl)benzyl)-7H-pyrrolo[2,3-d]pyrimidine-6-carboxamide] | < 0.1 µM |
| > 5 °C | COc1ncnc(C2CC2)c1-c1ncc2cc(C(=O)N[C@@H](C)CO)n(Cc3ccc(-c4nc(C(F)(F)F)cn4C)cc3)c2n1 [Example 166, (S)-2-(4-cyclopropyl-6-methoxypyrimidin-5-yl)-N-(1-hydroxypropan-2-yl)-7-(4-(1-methyl-4-(trifluoromethyl)-1H-imidazol-2-yl)benzyl)-7H-pyrrolo[2,3-d]pyrimidine-6-carboxamide] | < 0.1 µM |

Further lines, the compound ahead of its results:

| SMILES | ΔTm at 100 µM (recombinant USP1 protein) | GI50 (UWB1.289 cells) |
| --- | --- | --- |
| COc1ncnc(C2CC2)c1-c1ncc2cc(C(=O)NC3(CO)COC3)n(Cc3ccc(-c4nc(C(F)(F)F)cn4C(C)C)cc3)c2n1 [Example 138, 2-(4-cyclopropyl-6-methoxypyrimidin-5-yl)-N-(3-(hydroxymethyl)oxetan-3-yl)-7-(4-(1-isopropyl-4-(trifluoromethyl)-1H-imidazol-2-yl)benzyl)-7H-pyrrolo[2,3-d]pyrimidine-6-carboxamide] | > 5 °C | < 0.1 µM |
| COc1ncnc(C2CC2)c1-c1ncc2cc(C(=O)NC[C@H](O)CO)n(Cc3ccc(-c4nc(C(F)(F)F)cn4C)cc3)c2n1 [Example 152, (S)-2-(4-cyclopropyl-6-methoxypyrimidin-5-yl)-N-(2,3-dihydroxypropy 1)-7-(4-(1-methyl-4-(trifluoromethyl)-1H-imidazol-2-yl)benzyl)-7H-pyrrolo[2,3-d]pyrimidine-6-carboxamide] | > 5 °C | 0.1 to 0.5 µM |
| COc1ncnc(C2CC2)c1-c1ncc2cc(C(=O)NCC3CCC3)n(Cc3ccc(-c4nc(C(F)(F)F)cn4C(C)C)cc3)c2n1 [Example 19, N-(cyclobutylmethyl)-2-(4-cyclopropyl-6-methoxypyrimidin-5-yl)-7-(4-(1-isopropyl-4-(trifluoromethyl)-1H-imidazol-2-yl)benzyl)-7H-pyrrolo[2,3-d]pyrimidine-6-carboxamide] | > 5 °C | < 0.1 µM |
| COc1ncnc(C2CC2)c1-c1ncc2cc(C(=O)NCCN)n(Cc3ccc(-c4nc(C(F)(F)F)cn4C(C)C)cc3)c2n1 [Example 100, N-(2-aminoethyl)-2-(4-cyclopropyl-6-methoxypyrimidin-5-yl)-7-(4-(1-isopropyl-4-(trifluoromethyl)-1H-imidazol-2-yl)benzyl)-7H-pyrrolo[2,3-d]pyrimidine-6-carboxamide] | > 5 °C | 0.1 to 0.5 µM |
| CNCCN(C)C(=O)c1cc2cnc(-c3c(OC)ncnc3C3CC3)nc2n1Cc1ccc(-c2nc(C(F)(F)F)cn2C(C)C)cc1 [Example 26, 2-(4-cyclopropyl-6-methoxypyrimidin-5-yl)-7-(4-(1-isopropyl-4-(trifluoromethyl)-1H-imidazol-2-yl)benzyl)-N-methyl-N-(2-(methylamino)ethyl)-7H-pyrrolo[2,3-d]pyrimidine-6-carboxamide] | > 5 °C | < 0.1 µM |
| COc1ncnc(C2CC2)c1-c1ncc2cc(C(=O)N3CCCC(O)C3)n(Cc3ccc(-c4nc(C(F)(F)F)cn4C(C)C)cc3)c2n1 (centres unmarked) [Example 67, (2-(4-cyclopropyl-6-methoxypyrimid in-5-yl)-7-(4-(1-isopropyl-4-(trifluoromethyl)-1H-imidazol-2-yl)benzyl)-7H-pyrrolo[2,3-d]pyrimidin-6-yl) (3-hydroxypiperid in-1-yl)methanone] | > 5 °C | < 0.1 µM |
| COc1ncnc(C2CC2)c1-c1ncc2cc(C(=O)NCC(C)C)n(Cc3ccc(-c4nc(C(F)(F)F)cn4C(C)C)cc3)c2n1 [Example 114, 2-(4-cyclopropyl-6-methoxypyrimidin-5-yl)-N-isobutyl-7-(4-(1-isopropyl-4-(trifluoromethyl)-1H-imidazol-2-yl)benzyl)-7H-pyrrolo[2,3-d]pyrimidine-6-carboxamide] | > 5 °C | < 0.1 µM |
| COc1ncnc(C2CC2)c1-c1ncc2cc(C(=O)N[C@H](C)C(F)(F)F)n(Cc3ccc(-c4nc(C(F)(F)F)cn4C(C)C)cc3)c2n1 [Example 85, (R)-2-(4-cyclopropyl-6-methoxypyrimidin-5-yl)-7-(4-(1-isopropyl-4-(trifluoromethyl)-1H-imidazol-2-yl)benzyl)-N-(1,1,1-trifluoropropan-2-yl)-7H-pyrrolo[2,3-d]pyrimidine-6-carboxamide] | > 5 °C | 0.1 to 0.5 µM |
| CNC(=O)c1cc2cnc(-c3c(OC)ncnc3C3CC3)nc2n1Cc1ccc(-c2nc(C(F)(F)F)c3ccccn23)cc1 [Example 208, 2-(4-cyclopropyl-6-methoxypyrimidin-5-yl)-N-methyl-7-(4-(1-(trifluoromethyl)imidazol[1,5-a]pyridin-3-yl)benzyl)-7H-pyrrolo[2,3-d]pyrimidine-6-carboxamide] | > 5 °C | < 0.1 µM |
| COc1ncnc(C2CC2)c1-c1ncc2cc(C(=O)NCC3CCC(F)(F)C3)n(Cc3ccc(-c4nc(C(F)(F)F)cn4C(C)C)cc3)c2n1 (centres unmarked) [Example 80, 2-(4-cyclopropyl-6-methoxypyrimidin-5-yl)-N-((3,3-difluorocyclopentyl)methyl)-7-(4-(1-isopropyl-4-(trifluoromethyl)-1H-imidazol-2-yl)benzyl)-7H-pyrrolo[2,3-d]pyrimidine-6-carboxamide] | > 5 °C | 0.1 to 0.5 µM |

Source: patent EP4806898A1, “HETEROARYL DERIVATIVE COMPOUND AND USE THEREOF” (Voronoi Inc., priority 2023, dated 2025)
